Read-outs that look alike come from different tables or passages of the source.
Experiments:
Type in all cases: biochemical
CYP3A4 [1] = target: T1, CYP3A4 (Homo sapiens, UniProt P08684); experiment: Determination of IC50 against CYP3A4 by measurement of inhibition of testosterone metabolism (human liver microsomes, 6-β-OH-testosterone by LC-MS/MS); design: 0.1 mg/mL human liver microsomes; settings: read-out: IC50 (Testo.)
Method in brief: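 6-β-OH-testosterone formation was read by LC-MS/MS (MRM, internal standard, standard curve) after eight minutes. Reaction contained testosterone 25 μM, NADPH 1 mM and microsomal protein 0.1 mg/mL in pH 7.4 potassium phosphate (100 mM).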

CYP3A4 [2] = target: T1, CYP3A4; experiment: Determination of IC50 against CYP3A4 by measurement of inhibition of midazolam metabolism (human liver microsomes, 1-hydroxymidazolam by LC-MS/MS); design: 0.1 mg/mL human liver microsomes; settings: 2 μM midazolam, 0.1 mg/mL human liver microsomes
Method in brief: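 Human liver microsomes (0.1 mg/mL) incubated 8 min with 2 μM midazolam and 1 mM NADPH in 100 mM potassium phosphate, pH 7.4. 1-Hydroxymidazolam quantified by LC-MS/MS (MRM) as peak area ratio to internal standard against a metabolite standard curve.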

CYP3A4 [3] = target: T1, CYP3A4; experiment: Determination of compound Kiapp against recombinant CYP3A4 enzyme (BFC fluorescent substrate)
Method in brief: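 Kiapp derived from initial velocities over the first 5 min of BFC (5 uM) oxidation, using Morrison's tight-binding equation for non-partial and Szedlacsek's for partial inhibitors. Inhibitor first pre-incubated ≥30 min with CYP3A4 (5.5 or 8 nM, ±b5) in pH 7.0 phosphate/TCEP/2% DMF at room temperature; 200 uM NADPH initiated.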

[4] = Baculo. enzyme preparation, read-out: Kiapp (BFC, Baculo.)
[5] = Super. enzyme preparation, read-out: Kiapp (BFC, Super.)

T1 sequence (P08684 whole entry): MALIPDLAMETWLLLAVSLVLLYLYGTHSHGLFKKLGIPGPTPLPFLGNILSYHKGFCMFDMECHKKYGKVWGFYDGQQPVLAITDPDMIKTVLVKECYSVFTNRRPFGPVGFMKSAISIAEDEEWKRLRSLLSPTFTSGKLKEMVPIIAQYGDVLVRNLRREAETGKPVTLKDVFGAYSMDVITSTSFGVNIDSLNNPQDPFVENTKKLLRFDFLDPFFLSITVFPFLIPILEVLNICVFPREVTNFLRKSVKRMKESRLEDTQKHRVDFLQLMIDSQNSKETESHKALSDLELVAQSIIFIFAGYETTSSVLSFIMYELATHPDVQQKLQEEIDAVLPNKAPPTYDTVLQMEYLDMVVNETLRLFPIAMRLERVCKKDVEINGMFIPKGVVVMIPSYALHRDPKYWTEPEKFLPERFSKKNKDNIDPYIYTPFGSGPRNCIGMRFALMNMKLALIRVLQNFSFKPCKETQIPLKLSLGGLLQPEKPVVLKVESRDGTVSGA

SMILES	IC50 (CYP3A4 [1])	IC50 (CYP3A4 [2])	Ki (CYP3A4 [3]; [4])	Ki (CYP3A4 [3]; [5])
COc1cncc(NS(=O)(=O)c2ccccc2C(=O)N(C)Cc2ccccc2F)c1 [Example 198, N-(2-fluorobenzyl)-2-{[(5-methoxypyridin-3-yl)amino]sulfonyl}-N-methylbenzamide]	10 nM	< 3 nM	41.7 nM	16.6 nM
COc1cncc(NS(=O)(=O)c2ccccc2C(=O)NC(CO)Cc2ccc(Cl)cc2)c1 (stereo not shown) [Example 199, N-[1-(4-chlorobenzyl)-2-hydroxyethyl]-2-{[(5-methoxypyridin-3-yl)amino]sulfonyl}benzamide]	11 nM	6 nM	12.7 nM	10.5 nM
COc1cncc(NS(=O)(=O)c2ccccc2C(=O)NCC2CCCCC2)c1 [Example 200, N-(cyclohexylmethyl)-2-{[(5-methoxypyridin-3-yl)amino]sulfonyl}benzamide]	21 nM	12 nM	36.1 nM	9.9 nM
COc1cncc(NS(=O)(=O)c2ccccc2C(=O)NC2C3CC4CC(C3)CC2C4)c1 (stereo not shown) [Example 201, N-2-adamantyl-2-{[(5-methoxypyridin-3-yl)amino]sulfonyl}benzamide]	16 nM	9 nM	29.3 nM	8 nM
COc1cncc(NS(=O)(=O)c2ccccc2C(=O)NC2CCCC(C)C2)c1 (stereo not shown) [Example 202, 2-{[(5-methoxypyridin-3-yl)amino]sulfonyl}-N-(3-methylcyclohexyl)benzamide]	7 nM	< 3 nM	84.2 nM	33.4 nM
COc1cncc(NS(=O)(=O)c2ccccc2C(=O)NCc2ccc(C#N)cc2Cl)c1 [Example 203, N-(2-chloro-4-cyanobenzyl)-2-{[(5-methoxypyridin-3-yl)amino]sulfonyl}benzamide]	12 nM	5 nM	101 nM	25.8 nM
COc1cncc(NS(=O)(=O)c2ccccc2C(=O)NC(C)CC(C)C)c1 (stereo not shown) [Example 204, N-(1,3-dimethylbutyl)-2-{[(5-methoxypyridin-3-yl)amino]sulfonyl}benzamide]	12 nM	< 3 nM	52.5 nM	12.6 nM
CCC(C)NC(=O)c1ccccc1S(=O)(=O)Nc1cncc(OC)c1 (stereo not shown) [Example 205, N-(sec-butyl)-2-{[(5-methoxypyridin-3-yl)amino]sulfonyl}benzamide]	27 nM	< 15.5 nM	206 nM	41.9 nM
COc1cncc(NS(=O)(=O)c2ccccc2C(=O)NCc2cccc(Cl)c2C)c1 [Example 206, N-(3-chloro-2-methylbenzyl)-2-{[(5-methoxypyridin-3-yl)amino]sulfonyl}benzamide]	6 nM	< 3 nM	3.6 nM	2.9 nM
COc1cncc(NS(=O)(=O)c2ccccc2C(=O)NCc2c(F)cccc2F)c1 [Example 207, N-(2,6-difluorobenzyl)-2-{[(5-methoxypyridin-3-yl)amino]sulfonyl}benzamide]	24 nM	5 nM	105 nM	19.1 nM
CCC(C)CNC(=O)c1ccccc1S(=O)(=O)Nc1cncc(OC)c1 (stereo not shown) [Example 208, 2-{[(5-methoxypyridin-3-yl)amino]sulfonyl}-N-(2-methylbutyl)benzamide]	19 nM	9.5 nM	57.3 nM	16.1 nM
COc1cncc(NS(=O)(=O)c2ccccc2C(=O)NCCC2CCCC2)c1 [Example 209, N-(2-cyclopentylethyl)-2-{[(5-methoxypyridin-3-yl)amino]sulfonyl}benzamide]	5 nM	4 nM	18.2 nM	6.1 nM
COc1cncc(NS(=O)(=O)c2ccccc2C(=O)N[C@@H](C)C(C)(C)C)c1 [Example 210, 2-{[(5-methoxypyridin-3-yl)amino]sulfonyl}-N-[(1S)-122-trimethylpropyl]benzamide]	49 nM	10 nM	286 nM	39.6 nM
COc1cncc(NS(=O)(=O)c2ccccc2C(=O)NC(C(C)C)C(C)C)c1 [Example 211, N-(1-isopropyl-2-methylpropyl)-2-{[(5-methoxypyridin-3-yl)amino]sulfonyl}benzamide]	19 nM	4 nM	33.6 nM	7.9 nM
COc1cncc(NS(=O)(=O)c2ccccc2C(=O)NCc2ccc(F)cc2F)c1 [Example 212, N-(2,4-difluorobenzyl)-2-{[(5-methoxypyridin-3-yl)amino]sulfonyl}benzamide]	8 nM	< 3 nM	20.3 nM	6 nM
COc1cncc(NS(=O)(=O)c2ccccc2C(=O)NCc2c(F)cccc2Cl)c1 [Example 213, N-(2-chloro-6-fluorobenzyl)-2-{[(5-methoxypyridin-3-yl)amino]sulfonyl}benzamide]	13 nM	< 3 nM	27.2 nM	9.8 nM

SMILES	IC50 (CYP3A4 [1])	IC50 (CYP3A4 [2])	Ki (CYP3A4 [3]; [4])	Ki (CYP3A4 [3]; [5])
COc1cncc(NS(=O)(=O)c2ccccc2C(=O)NC2CCCC2)c1 [Example 214, N-cyclopentyl-2-{[(5-methoxypyridin-3-yl)amino]sulfonyl}benzamide]	66 nM	14 nM	355 nM	47.3 nM
COc1cncc(NS(=O)(=O)c2ccccc2C(=O)NC2CC3CCC2C3)c1 (stereo not shown) [Example 215, N-bicyclo[2.2.1]hept-2-yl-2-{[(5-methoxypyridin-3-yl)amino]sulfonyl}benzamide]	58 nM	25 nM	216 nM	43.3 nM
COc1cncc(NS(=O)(=O)c2ccccc2C(=O)NCc2ccc(Cl)cc2C)c1 [Example 216]	7 nM	5 nM	6.9 nM	3.5 nM
CCOc1ccncc1NS(=O)(=O)c1ccccc1C(=O)NCCOC [Example 217, 2-{[(4-ethoxypyridin-3-yl)amino]sulfonyl}-N-(2-methoxyethyl)benzamide]	230 nM	179 nM	965 nM	216 nM
CCOCCNC(=O)c1ccccc1S(=O)(=O)Nc1cnccc1OCC [Example 218, N-(2-ethoxyethyl)-2-{[(4-ethoxypyridin-3-yl)amino]sulfonyl}benzamide]	189 nM	96 nM	748 nM	146 nM
CCOc1ccncc1NS(=O)(=O)c1ccccc1C(=O)NCCOc1ccccc1 [Example 219]	32 nM	27 nM	108 nM	40.3 nM
COc1ccncc1NS(=O)(=O)c1ccccc1C(=O)NCCc1ccccc1Cl [Example 220, N-[2-(2-chlorophenyl)ethyl]-2-{[(4-methoxypyridin-3-yl)amino]sulfonyl}benzamide]	11 nM	6 nM	13.7 nM	9.1 nM
COc1ccncc1NS(=O)(=O)c1ccccc1C(=O)NCCc1ccccc1OC(F)(F)F [Example 221, 2-{[(4-methoxypyridin-3-yl)amino]sulfonyl}-N-{2-[2-(trifluoromethoxy)phenyl]ethyl} benzamide]	12 nM	11 nM	16 nM	8.9 nM
COc1ccncc1NS(=O)(=O)c1ccccc1C(=O)NCCc1ccccc1F [Example 222]	34 nM	15 nM	207 nM	12.7 nM
CCOCCNC(=O)c1ccccc1S(=O)(=O)Nc1cnccc1OC [Example 223, N-(2-ethoxyethyl)-2-{[(4-methoxypyridin-3-yl)amino]sulfonyl}benzamide]	745 nM	260 nM	> 1000 nM	326 nM
COc1ccncc1NS(=O)(=O)c1ccccc1C(=O)NCCOc1ccccc1 [Example 224, 2-{[(4-methoxypyridin-3-yl)amino]sulfonyl}-N-(2-phenoxyethyl)benzamide]	56 nM	29 nM	399 nM	56.8 nM
Cc1cncc(NS(=O)(=O)c2ccccc2C(=O)NCCc2ccccc2OC(F)(F)F)c1 [Example 225, 2-{[(5-methylpyridin-3-yl)amino]sulfonyl}-N-{2-[2-(trifluoromethoxy)phenyl]ethyl}benzamide]	9 nM	7 nM	15.7 nM	1.7 nM
Cc1cncc(NS(=O)(=O)c2ccccc2C(=O)NCCc2ccccc2Cl)c1 [Example 226, N-[2-(2-chlorophenyl)ethyl]-2-{[(5-methylpyridin-3-yl)amino]sulfonyl}benzamide]	8 nM	< 3 nM	16.4 nM	2.6 nM
Cc1cncc(NS(=O)(=O)c2ccccc2C(=O)NCCc2ccccc2F)c1 [Example 227, N-[2-(2-fluorophenyl)ethyl]-2-{[(5-methylpyridin-3-yl)amino]sulfonyl}benzamide]	11 nM	5 nM	86.8 nM	8.6 nM
CCOCCNC(=O)c1ccccc1S(=O)(=O)Nc1cncc(C)c1 [Example 228, N-(2-ethoxyethyl)-2-{[(5-methylpyridin-3-yl)amino]sulfonyl}benzamide]	161 nM	53 nM	> 1000 nM	120 nM
